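Exposure lasted 48 hours, with cells grown in 96-well plates and compounds tested at five concentrations. At the TGI there is no net growth.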
How the values were obtained:
Assay in all cases: DTP human tumour cell line panel, 48 h
[1] = tested on: NCI-H460 lung
[2] = tested on: RPMI-8226 leukemia
[3] = tested on: K-562 leukemia
[4] = tested on: UACC-257 melanoma
[5] = tested on: SF-295 CNS
[6] = tested on: LXFL 529 NSCLC
[7] = tested on: KM20L2 colon
[8] = tested on: SK-OV-3 ovarian
[9] = tested on: RXF 393 renal
[10] = tested on: MALME-3M melanoma
[11] = tested on: U251 CNS
[12] = tested on: UACC-62 melanoma
[13] = tested on: SF-539 CNS
[14] = tested on: NCI-H23 lung
[15] = tested on: SK-MEL-28 melanoma
[16] = tested on: M19-MEL melanoma
[17] = tested on: HOP-92 NSCLC
[18] = tested on: SNB-75 CNS
[19] = tested on: A498 renal
[20] = tested on: HT29 colon
[21] = tested on: M14 melanoma
[22] = tested on: OVCAR-4 ovarian
[23] = tested on: OVCAR-3 ovarian
[24] = tested on: ACHN renal
[25] = tested on: SF-268 CNS
[26] = tested on: OVCAR-5 ovarian
[27] = tested on: IGROV1 ovarian
[28] = tested on: KM12 colon
[29] = tested on: DMS 114 small cell lung
[30] = tested on: HOP-62 NSCLC
[31] = tested on: SNB-19 CNS
[32] = tested on: COLO 205 colon
[33] = tested on: HCT-116 colon
[34] = tested on: UO-31 renal
[35] = tested on: SK-MEL-2 melanoma
[36] = tested on: SNB-78 CNS
[37] = tested on: HOP-18 NSCLC
[38] = tested on: HCT-15 colon
[39] = tested on: 786-0 renal
[40] = tested on: SR leukemia
[41] = tested on: TK-10 renal
[42] = tested on: NCI-H226 lung
[43] = tested on: LOX IMVI melanoma
[44] = tested on: A549 NSCLC
[45] = tested on: SW-620 colon
[46] = tested on: HCC-2998 colon
[47] = tested on: CCRF-CEM leukemia
[48] = tested on: HL-60(TB) leukemia
[49] = tested on: OVCAR-8 ovarian
[50] = tested on: DLD-1 colon
[51] = tested on: MOLT-4 leukemia
[52] = tested on: EKVX NSCLC
[53] = tested on: SK-MEL-5 melanoma
[54] = tested on: CAKI-1 renal

Measured: TGI

CCOP(=O)(OCC)/C(C#N)=C/c1cc(O)ccc1O
not listed: [37] | [38] | [39] | [40] | [41] | [42] | [43] | [44] | [45] | [46] | [47] | [48] | [49] | [50] | [51] | [52] | [53] | [54]
> 100 µM: all other assays above

CO[C@]12CCC(=O)N1C=Cc1c2[nH]c2ccccc12
not listed: [7] | [8] | [11] | [28] | [35]
> 100 µM: all other assays above

Source: PubChem BioAssay (NCI)
